This note sets out measurements from article PMC9975698, “Hyperoside alleviates toxicity of β-amyloid via endoplasmic reticulum-mitochondrial calcium signal transduction cascade in APP/PS1 double transgenic Alzheimer's disease mice” (Redox Biology, 2023).

Assay [1] relates to HT22 cells. Kind of assay: Mitochondrial membrane potential by JC-1. The class given is cell-based.
Text: The mitochondrial membrane potential of HT22 stained with 5,5′,6,6′-tetrachloro-1,1′,3,3′-tetraethylbenzimidazolyl cobalt iodide (JC-1) was observed by laser scanning confocal microscopy.
Assay [2] has as its target T1, Aβ (1–42) (Homo sapiens, UniProt P05067).
T1 construct: purchased DGpeptites, Hangzhou, CHINA
Kind of assay: Thioflavin T (ThT) fluorescence assay of Aβ fibrillation. Format: biochemical. Conditions: Aβ 30 μM, 37 °C, day 1–7. Here is the method:
HYP was incubated with Aβ (30 μM) for 7 days at 37 °C at a final volume of 100 μL. ThT fluorescence measurement was measured for every 24 h. ThT (20 μM) dissolved in PBS (pH = 7.4) was added in a black 96-well plate with 10 μL of aggregated Aβ (with or without HYP) and incubated for 1 h. Fluorescence measurement was then performed using a microplate reader (SpectraMax Paradigm, Molecular Devices, CA, USA) with an excitation wavelength of 450 nm and an emission wavelength of 490 nm. Background fluorescence was measured in control samples containing PBS and 0.02 % DMSO.

For assay [3], the system named is APP/PS1 mice. Kind of assay: Western blot of Bcl-2, Bax and cyto-c in cortex and hippocampus lysates. Format: in vivo. Conditions: 8 weeks of HYP treatment vs APP/PS1 untreated group. Here is the method: After HYP treatment, the cells were lysed with RIPA. Protein concentrations were determined by Bio-Rad protein assay (Bio-Rad Laboratories, CA, USA). After electrophoretic separation, the gels were blotted and stained with primary antibodies. Binding of antibodies was visualized with peroxidase-coupled secondary antibodies using ECL Western Blotting detection reagents (Invitrogen, Scotland, UK). Band intensities were quantified using ImageJ software. Data were obtained from three independent experiments. All animal care and experimental procedures were performed in accordance with the “Institutional Animal Care and User Committee Guidelines” of the Macau University of Science and Technology. APP/PSEN1 (APP/PS1) mice (N000175) were purchased from the Nanjing Institute of Biomedical Sciences, Nanjing University, China, weighing 25 ± 5 g. The animals were housed in a temperature-controlled room with a 12 h light/dark cycle and given ad libitum food and water. Male mice were randomly divided into the following 6 experimental groups. (a) wild-type group (n = 6), (b) APP/PS1 group (n = 6), (c) HYP (20 mg/kg group) (n = 7), (d) HYP (40 mg/kg) group (n = 8), (e) HYP (80 mg/kg) group (n = 8) and (f) memantine (MEM) (10 mg/kg) positive control group (n = 8). […]
For orientation: Immunoblotting shows a protein as a band on a membrane.

In assay [4] the test system is APP/PS1 mice. Description: Fear-conditioning test. Conditions: HYP nasal, every 3 days, 8 weeks. Format: in vivo. Here is the method:
All animal care and experimental procedures were performed in accordance with the “Institutional Animal Care and User Committee Guidelines” of the Macau University of Science and Technology. APP/PSEN1 (APP/PS1) mice (N000175) were purchased from the Nanjing Institute of Biomedical Sciences, Nanjing University, China, weighing 25 ± 5 g. The animals were housed in a temperature-controlled room with a 12 h light/dark cycle and given ad libitum food and water. Male mice were randomly divided into the following 6 experimental groups. (a) wild-type group (n = 6), (b) APP/PS1 group (n = 6), (c) HYP (20 mg/kg group) (n = 7), (d) HYP (40 mg/kg) group (n = 8), (e) HYP (80 mg/kg) group (n = 8) and (f) memantine (MEM) (10 mg/kg) positive control group (n = 8). HYP was dissolved in the solvent containing 10% DMSO, 40% PEG300 and 5% Tween-80 in PBS, and administrated via nasal injection for every 3 days with a volume of 0.5 μL/g of body weight for 8 consecutive weeks. The fear conditioning test measures the ability of mice to learn and remember associations between aversive experiences and the environment. On the first day of the fear conditioning test (Yuyan, Shanghai, China), mice were placed in a chamber for 5 min to acclimatize and explore. […] Responses were recorded with a video camera and scored for resting time, which was defined as the absence of any movement other than breathing.

Assay [5] has as its system HT22 cells. Description: Western blot of Bcl-2, Bax and cyto-c in HT22 cells. Conditions: HT22 cells co-treated with Aβ aggregates 30 μM and HYP, 24 h. The class given is cell-based. Here is the method: After HYP treatment, the cells were lysed with RIPA. Protein concentrations were determined by Bio-Rad protein assay (Bio-Rad Laboratories, CA, USA). After electrophoretic separation, the gels were blotted and stained with primary antibodies. Binding of antibodies was visualized with peroxidase-coupled secondary antibodies using ECL Western Blotting detection reagents (Invitrogen, Scotland, UK). Band intensities were quantified using ImageJ software. Data were obtained from three independent experiments.

Assay [6] concerns HT22 cells. Kind of assay: ATP content measurement by LC-MS/MS. Conditions: Aβ aggregates with HYP 20, 40, 80 μM, 24 h. The class given is cell-based. Here is the method: HT22 cells were co-treated with Aβ aggregates and HYP (20–80 μM) for 24 h and washed with PBS. Each digested sample was re-suspended in 10 mL of ice-cold PBS, followed by centrifugation for 5 min (300 g, 4 °C). Cell pellets were then treated with 85% cold methanol (2 × 10^6 cells / 100 μL) containing 2 μM ATP-^13C10,^15N5, then vortexed for 1 min and placed on ice for 10 min. After centrifugation (13,000 g) at 4 °C for 15 min, the supernatant was transferred into another tube. The derivatization reaction was initiated by adding 75 μL of derivatization reagent MTBSTFA into 200 μL of cell lysis with 85% methanol and completed over 5 min with consistent vortex. Derivatization samples were then centrifuged (13,000 g) at 4 °C for 10 min, and 25 μL of the supernatant was injected into LC-MS/MS system for analysis.

Assay [7] relates to APP. Description: Real-time quantitative PCR of APP mRNA in HT22 cells. Format: cell-based. Conditions: HT22 cells after HYP treatment. Here is the method: RNA was extracted from the HT22 cell using FavorPrep™ Blood/Cultured Cell Total RNA Purification Mini Kit (Favorgen Biotech Corp.). RNA concentration was determined using the NanoDrop 2000c Spectrophotometer (Thermo Scientific). 1 μg of total RNA was used to reverse transcribe to its corresponding cDNA by using the Transcriptor Universal cDNA Master mix (Roche, USA). Quantitative PCR was then performed with the addition of PowerUp™ SYBR® Green Master Mix (Applied Biosystems) using the ViiA™ 7 Real-Time PCR System (Applied Biosystems). Specific primers (Tech Dragon Ltd., Hong Kong) were designed by employing ThermoFisher Scientific's online OligoPerfect™ Designer software and then verified with NCBI's Primer‐BLAST software to confirm specific recognition of the target genes. Gene expression levels were normalized to actin (control) and analyzed using the ΔΔCT method. Three independent experiments with three replicates per group were analyzed for each primer.

T1 sequence (P05067 672-713 limits assumed): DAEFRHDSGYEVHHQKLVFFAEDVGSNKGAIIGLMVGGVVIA

As for `O=c1c(O[C@@H]2O[C@H](CO)[C@H](O)[C@H](O)[C@H]2O)c(-c2ccc(O)c(O)c2)oc2cc(O)cc(O)c12` [HYP, Quercetin-3-O-β-D-galactopyranoside], in assay [1] (Aβ aggregates + HYP 20–80 μM, 24 h), the “mitochondrial membrane potential (ratio of aggregated and monomeric JC-1)” value is “rescue the loss of mitochondrial membrane potential induced by Aβ aggregates in a dose-dependent manner”. The “mitochondrial membrane potential (JC-1)” value in assay [1] (HYP alone) is recorded as “no effect”. For the same compound, the “Aβ fibrillation and aggregation (ThT fluorescence)” value in assay [2] was “reduced Aβ fibrillation and aggregation”. Further, the “level of Bax, cyto-c, Bcl-2 and Bax/Bcl-2 ratio” value in assay [3] is “a decrease in the level of both Bax and cyto-c, an increase in Bcl-2 expression, and a reduction in the Bax/Bcl-2 ratio”. Further, in assay [4], the “freezing time in fear conditioning test” value is “significantly decreased the freezing time”. For the same compound, the “ratio of Bax / Bcl-2 and level of cyto-c” value in assay [5] was “ratio of Bax / Bcl-2 was decreased with the reduction in the level of cyto-c”. In assay [6], the ATP content result was “rescued the Aβ-induced decrease in mitochondrial ATP”. Besides, in assay [7], the “mRNA transcriptional level of APP” value is “no significant effect”.
